According to ChEMBL document CHEMBL3046153, “Synthesis and antimicrobial evaluation of 4,5-diaryl-2-[4-(t-amino)-2-butynyl]-2,4-dihydro-3H-1,2,4-triazol-3-ones” (2012):
≈ marks a conversion by molar mass, not a printed value.

Experiments:
Assay type in all cases: functional
Pseudomonas aeruginosa = assay: Antibacterial activity against Pseudomonas aeruginosa ATCC 27953 after 16 to 18 hr by NCCLS broth macrodilution method
Staphylococcus aureus = assay: Antibacterial activity against Staphylococcus aureus ATCC 29213 after 16 to 18 hr by NCCLS broth macrodilution method
Escherichia coli = assay: Antibacterial activity against Escherichia coli ATCC 25922 after 16 to 18 hr by NCCLS broth macrodilution method
Candida albicans = assay: Antifungal activity against Candida albicans clinical isolate after 24 hr by NCCLS broth macrodilution method

SMILES	MIC (Pseudomonas aeruginosa)	MIC (Staphylococcus aureus)	MIC (Escherichia coli)	MIC (Candida albicans)
CC1CCCC(C)N1CC#CCn1nc(-c2ccccc2)n(-c2ccccc2)c1=O (stereo unspecified)	50 µg/mL (≈ 125 µM)	12.5 µg/mL (≈ 31.2 µM)	12.5 µg/mL (≈ 31.2 µM)	25 µg/mL (≈ 62.4 µM)
O=c1n(CC#CCN2CCCCCC2)nc(-c2ccccc2)n1-c1ccccc1	50 µg/mL (≈ 129 µM)	6.25 µg/mL (≈ 16.2 µM)	12.5 µg/mL (≈ 32.3 µM)	12.5 µg/mL (≈ 32.3 µM)
O=c1n(CC#CCN2CCCCCCC2)nc(-c2ccccc2)n1-c1ccccc1	25 µg/mL (≈ 62.4 µM)	6.25 µg/mL (≈ 15.6 µM)	6.25 µg/mL (≈ 15.6 µM)	12.5 µg/mL (≈ 31.2 µM)
CC1CCCCN1CC#CCn1nc(-c2ccccc2)n(-c2ccccc2)c1=O (stereo unspecified)	100 µg/mL (≈ 259 µM)	12.5 µg/mL (≈ 32.3 µM)	50 µg/mL (≈ 129 µM)	25 µg/mL (≈ 64.7 µM)
CC1CCCN(CC#CCn2nc(-c3ccccc3)n(-c3ccccc3)c2=O)C1 (stereo unspecified)	50 µg/mL (≈ 129 µM)	12.5 µg/mL (≈ 32.3 µM)	12.5 µg/mL (≈ 32.3 µM)	12.5 µg/mL (≈ 32.3 µM)
O=c1n(CC#CCN2CCCC2)nc(-c2ccccc2)n1-c1ccccc1	100 µg/mL (≈ 279 µM)	25 µg/mL (≈ 69.7 µM)	50 µg/mL (≈ 139 µM)	25 µg/mL (≈ 69.7 µM)
CC1CCCC(C)N1CC#CCn1nc(-c2ccccc2)n(-c2cccc3ccccc23)c1=O (stereo unspecified)	100 µg/mL (≈ 222 µM)	50 µg/mL (≈ 111 µM)	50 µg/mL (≈ 111 µM)	50 µg/mL (≈ 111 µM)
CC1CCCN(CC#CCn2nc(-c3ccccc3)n(-c3cccc4ccccc34)c2=O)C1 (stereo unspecified)	100 µg/mL (≈ 229 µM)	25 µg/mL (≈ 57.3 µM)	50 µg/mL (≈ 115 µM)	50 µg/mL (≈ 115 µM)
O=c1n(CC#CCN2CCCCCC2)nc(-c2ccccc2)n1-c1cccc2ccccc12	50 µg/mL (≈ 115 µM)	25 µg/mL (≈ 57.3 µM)	50 µg/mL (≈ 115 µM)	25 µg/mL (≈ 57.3 µM)
O=c1n(CC#CCN2CCCCCCC2)nc(-c2ccccc2)n1-c1cccc2ccccc12	50 µg/mL (≈ 111 µM)	50 µg/mL (≈ 111 µM)	25 µg/mL (≈ 55.5 µM)	12 µg/mL (≈ 26.6 µM)
CC1CCCC(C)N1CC#CCn1nc(-c2ccc(Cl)cc2)n(-c2ccccc2)c1=O (stereo unspecified)	50 µg/mL (≈ 115 µM)	25 µg/mL (≈ 57.5 µM)	25 µg/mL (≈ 57.5 µM)	25 µg/mL (≈ 57.5 µM)
CC1CCCCN1CC#CCn1nc(-c2ccc(Cl)cc2)n(-c2ccccc2)c1=O (stereo unspecified)	100 µg/mL (≈ 238 µM)	12.5 µg/mL (≈ 29.7 µM)	50 µg/mL (≈ 119 µM)	50 µg/mL (≈ 119 µM)
O=c1n(CC#CCN2CCCCC2)nc(-c2ccc(Cl)cc2)n1-c1ccccc1	100 µg/mL (≈ 246 µM)	12.5 µg/mL (≈ 30.7 µM)	50 µg/mL (≈ 123 µM)	25 µg/mL (≈ 61.4 µM)
CC(=O)N1CCN(c2ccc(OCC3COC(Cn4ccnc4)(c4ccc(Cl)cc4Cl)O3)cc2)CC1 (stereo unspecified) [KETOCONAZOLE]				12.5 µg/mL (≈ 23.5 µM)
CC1COc2c(N3CCN(C)CC3)c(F)cc3c(=O)c(C(=O)O)cn1c23 (stereo unspecified) [OFLOXACIN]	25 µg/mL (≈ 69.2 µM)	12.5 µg/mL (≈ 34.6 µM)	12.5 µg/mL (≈ 34.6 µM)	
